Source: ChEMBL document CHEMBL5463729, “Data for DCP probe BAY 1753011” (2023)

How the values were obtained:
[1] = target: Activated CDC42 kinase 1 (Homo sapiens) (UniProt Q07912); test: Inhibition of ACK1(h) at 10.0 µM in the Eurofins Kinase panel; details: Compound concentration 10.0 uM
[2] = target: 5'-AMP-activated protein kinase catalytic subunit alpha-1 (Homo sapiens) (UniProt Q13131); test: Inhibition of AMPKalpha1(h) at 10.0 µM in the Eurofins Kinase panel; details: Compound concentration 10.0 uM
[3] = target: NUAK family SNF1-like kinase 1 (Homo sapiens) (UniProt O60285); test: Inhibition of ARK5(h) at 10.0 µM in the Eurofins Kinase panel; details: Compound concentration 10.0 uM
[4] = target: Aurora kinase A (Homo sapiens) (UniProt O14965); test: Inhibition of Aurora-A(h) at 10.0 µM in the Eurofins Kinase panel; details: Compound concentration 10.0 uM
[5] = target: Calcium/calmodulin-dependent protein kinase type 1 (Homo sapiens) (UniProt Q14012); test: Inhibition of CaMKI(h) at 10.0 µM in the Eurofins Kinase panel; details: Compound concentration 10.0 uM
[6] = target: Calcium/calmodulin-dependent protein kinase kinase 1 (Homo sapiens) (UniProt Q8N5S9); test: Inhibition of CaMKK1(h) at 10.0 µM in the Eurofins Kinase panel; details: Compound concentration 10.0 uM
[7] = target: CDK18/Cyclin Y (Homo sapiens) (UniProt Q07002+Q8ND76); test: Inhibition of CDK18/cyclinY(h) at 10.0 µM in the Eurofins Kinase panel; type: protein-complex assay; details: Compound concentration 10.0 uM
[8] = target: Casein kinase I isoform delta (Homo sapiens) (UniProt P48730); test: Inhibition of CK1delta(h) at 10.0 µM in the Eurofins Kinase panel; details: Compound concentration 10.0 uM
[9] = target: Serine/threonine-protein kinase 17A (Homo sapiens) (UniProt Q9UEE5); test: Inhibition of DRAK1(h) at 10.0 µM in the Eurofins Kinase panel; details: Compound concentration 10.0 uM
[10] = target: Epidermal growth factor receptor (Homo sapiens) (UniProt P00533); test: Inhibition of EGFR(h) at 10.0 µM in the Eurofins Kinase panel; details: Compound concentration 10.0 uM
[11] = target: Vascular endothelial growth factor receptor 3 (Homo sapiens) (UniProt P35916); test: Inhibition of Flt4(h) at 10.0 µM in the Eurofins Kinase panel; details: Compound concentration 10.0 uM
[12] = target: Insulin receptor-related protein (Homo sapiens) (UniProt P14616); test: Inhibition of IRR(h) at 10.0 µM in the Eurofins Kinase panel; details: Compound concentration 10.0 uM
[13] = target: Serine/threonine-protein kinase MAK (Homo sapiens) (UniProt P20794); test: Inhibition of MAK(h) at 10.0 µM in the Eurofins Kinase panel; details: Compound concentration 10.0 uM
[14] = target: Serine/threonine-protein kinase MARK1 (Homo sapiens) (UniProt Q9P0L2); test: Inhibition of MARK1(h) at 10.0 µM in the Eurofins Kinase panel; details: Compound concentration 10.0 uM
[15] = target: Mitogen-activated protein kinase kinase kinase 11 (Homo sapiens) (UniProt Q16584); test: Inhibition of MLK3(h) at 10.0 µM in the Eurofins Kinase panel; details: Compound concentration 10.0 uM
[16] = target: NUAK family SNF1-like kinase 2 (Homo sapiens) (UniProt Q9H093); test: Inhibition of NUAK2(h) at 10.0 µM in the Eurofins Kinase panel; details: Compound concentration 10.0 uM
[17] = target: Protein kinase C delta type (Homo sapiens) (UniProt Q05655); test: Inhibition of PKCdelta(h) at 10.0 µM in the Eurofins Kinase panel; details: Compound concentration 10.0 uM
[18] = target: Protein kinase C iota type (Homo sapiens) (UniProt P41743); test: Inhibition of PKCiota(h) at 10.0 µM in the Eurofins Kinase panel; details: Compound concentration 10.0 uM
[19] = target: Serine/threonine-protein kinase PLK2 (Homo sapiens) (UniProt Q9NYY3); test: Inhibition of Snk(h) at 10.0 µM in the Eurofins Kinase panel; details: Compound concentration 10.0 uM
[20] = target: Tyrosine-protein kinase Srms (Homo sapiens) (UniProt Q9H3Y6); test: Inhibition of SRMS(h) at 10.0 µM in the Eurofins Kinase panel; details: Compound concentration 10.0 uM
[21] = target: Serine/threonine-protein kinase 25 (Homo sapiens) (UniProt O00506); test: Inhibition of STK25(h) at 10.0 µM in the Eurofins Kinase panel; details: Compound concentration 10.0 uM
[22] = target: Mitogen-activated protein kinase kinase kinase 7 (Homo sapiens) (UniProt O43318); test: Inhibition of TAK1(h) at 10.0 µM in the Eurofins Kinase panel; details: Compound concentration 10.0 uM
[23] = target: Serine/threonine-protein kinase TAO1 (Homo sapiens) (UniProt Q7L7X3); test: Inhibition of TAO1(h) at 10.0 µM in the Eurofins Kinase panel; details: Compound concentration 10.0 uM
[24] = target: Serine/threonine-protein kinase TBK1 (Homo sapiens) (UniProt Q9UHD2); test: Inhibition of TBK1(h) at 10.0 µM in the Eurofins Kinase panel; details: Compound concentration 10.0 uM
[25] = target: Serine/threonine-protein kinase tousled-like 2 (Homo sapiens) (UniProt Q86UE8); test: Inhibition of TLK2(h) at 10.0 µM in the Eurofins Kinase panel; details: Compound concentration 10.0 uM
[26] = target: Serine/threonine-protein kinase WNK4 (Homo sapiens) (UniProt Q96J92); test: Inhibition of WNK4(h) at 10.0 µM in the Eurofins Kinase panel; details: Compound concentration 10.0 uM
[27] = target: Death-associated protein kinase 3 (Homo sapiens) (UniProt O43293); test: Inhibition of ZIPK(h) at 10.0 µM in the Eurofins Kinase panel; details: Compound concentration 10.0 uM
[28] = target: Phosphatidylinositol 3-kinase C2 domain-containing subunit gamma (Homo sapiens) (UniProt O75747); test: Inhibition of PI3KC2g(h) at 10.0 µM in the Eurofins Kinase panel; details: Compound concentration 10.0 uM
[29] = target: D(1A) dopamine receptor (Homo sapiens) (UniProt P21728); details: Compound concentration 10.0 uM
[30] = target: Sodium-dependent serotonin transporter (Homo sapiens) (UniProt P31645); details: Compound concentration 10.0 uM
[31] = target: T1, Alpha-2B adrenergic receptor (Homo sapiens) (UniProt P18089); details: Compound concentration 10.0 uM
T1 sequence (whole entry): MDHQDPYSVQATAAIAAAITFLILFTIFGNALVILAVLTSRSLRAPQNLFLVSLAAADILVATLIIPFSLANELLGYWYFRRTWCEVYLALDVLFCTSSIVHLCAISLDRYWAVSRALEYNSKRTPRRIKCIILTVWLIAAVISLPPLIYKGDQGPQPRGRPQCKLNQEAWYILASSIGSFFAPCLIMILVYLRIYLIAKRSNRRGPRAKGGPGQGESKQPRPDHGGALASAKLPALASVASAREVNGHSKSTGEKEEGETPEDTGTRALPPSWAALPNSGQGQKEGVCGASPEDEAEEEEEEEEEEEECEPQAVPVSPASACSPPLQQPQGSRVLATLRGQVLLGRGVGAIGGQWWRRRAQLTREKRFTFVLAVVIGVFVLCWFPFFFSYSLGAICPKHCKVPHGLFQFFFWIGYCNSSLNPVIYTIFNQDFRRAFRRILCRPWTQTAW

[32] = target: Insulin receptor (Homo sapiens) (UniProt P06213); details: Rattus norvegicus; Compound concentration 10.0 uM
[33] = target: Ribosomal protein S6 kinase beta-2 (Homo sapiens) (UniProt Q9UBS0); test: Inhibition of p70S6Kbeta(h) at 10.0 µM in the Eurofins Kinase panel; details: Compound concentration 10.0 uM

Calcium/calmodulin-dependent protein kinase kinase 1 (Homo sapiens), sequence (Q8N5S9 whole entry, looked up): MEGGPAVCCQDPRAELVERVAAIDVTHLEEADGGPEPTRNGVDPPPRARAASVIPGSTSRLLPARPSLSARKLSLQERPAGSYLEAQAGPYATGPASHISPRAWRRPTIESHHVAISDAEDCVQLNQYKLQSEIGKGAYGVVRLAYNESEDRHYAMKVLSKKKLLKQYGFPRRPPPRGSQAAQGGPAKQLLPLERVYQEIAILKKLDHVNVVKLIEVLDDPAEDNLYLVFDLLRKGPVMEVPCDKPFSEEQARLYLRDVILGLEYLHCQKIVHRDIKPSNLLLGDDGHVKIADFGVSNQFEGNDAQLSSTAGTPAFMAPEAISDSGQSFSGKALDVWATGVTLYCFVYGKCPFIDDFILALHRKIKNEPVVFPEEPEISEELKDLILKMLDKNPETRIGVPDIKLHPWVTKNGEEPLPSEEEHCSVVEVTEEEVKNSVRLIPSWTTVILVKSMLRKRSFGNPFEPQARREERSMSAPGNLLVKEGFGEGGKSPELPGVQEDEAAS
D(1A) dopamine receptor (Homo sapiens), sequence (P21728 whole entry): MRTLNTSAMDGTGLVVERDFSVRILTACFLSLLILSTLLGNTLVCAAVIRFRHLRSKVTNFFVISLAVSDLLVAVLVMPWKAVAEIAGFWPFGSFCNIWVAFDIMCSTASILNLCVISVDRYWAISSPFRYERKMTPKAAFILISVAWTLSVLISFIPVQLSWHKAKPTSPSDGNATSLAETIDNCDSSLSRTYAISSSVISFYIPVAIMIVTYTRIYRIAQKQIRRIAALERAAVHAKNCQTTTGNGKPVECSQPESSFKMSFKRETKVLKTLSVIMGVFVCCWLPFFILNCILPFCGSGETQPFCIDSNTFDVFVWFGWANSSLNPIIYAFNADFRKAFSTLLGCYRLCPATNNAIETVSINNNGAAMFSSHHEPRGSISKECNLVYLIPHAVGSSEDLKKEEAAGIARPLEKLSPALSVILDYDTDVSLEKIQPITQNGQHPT
Vascular endothelial growth factor receptor 3 (Homo sapiens), sequence (P35916 whole entry): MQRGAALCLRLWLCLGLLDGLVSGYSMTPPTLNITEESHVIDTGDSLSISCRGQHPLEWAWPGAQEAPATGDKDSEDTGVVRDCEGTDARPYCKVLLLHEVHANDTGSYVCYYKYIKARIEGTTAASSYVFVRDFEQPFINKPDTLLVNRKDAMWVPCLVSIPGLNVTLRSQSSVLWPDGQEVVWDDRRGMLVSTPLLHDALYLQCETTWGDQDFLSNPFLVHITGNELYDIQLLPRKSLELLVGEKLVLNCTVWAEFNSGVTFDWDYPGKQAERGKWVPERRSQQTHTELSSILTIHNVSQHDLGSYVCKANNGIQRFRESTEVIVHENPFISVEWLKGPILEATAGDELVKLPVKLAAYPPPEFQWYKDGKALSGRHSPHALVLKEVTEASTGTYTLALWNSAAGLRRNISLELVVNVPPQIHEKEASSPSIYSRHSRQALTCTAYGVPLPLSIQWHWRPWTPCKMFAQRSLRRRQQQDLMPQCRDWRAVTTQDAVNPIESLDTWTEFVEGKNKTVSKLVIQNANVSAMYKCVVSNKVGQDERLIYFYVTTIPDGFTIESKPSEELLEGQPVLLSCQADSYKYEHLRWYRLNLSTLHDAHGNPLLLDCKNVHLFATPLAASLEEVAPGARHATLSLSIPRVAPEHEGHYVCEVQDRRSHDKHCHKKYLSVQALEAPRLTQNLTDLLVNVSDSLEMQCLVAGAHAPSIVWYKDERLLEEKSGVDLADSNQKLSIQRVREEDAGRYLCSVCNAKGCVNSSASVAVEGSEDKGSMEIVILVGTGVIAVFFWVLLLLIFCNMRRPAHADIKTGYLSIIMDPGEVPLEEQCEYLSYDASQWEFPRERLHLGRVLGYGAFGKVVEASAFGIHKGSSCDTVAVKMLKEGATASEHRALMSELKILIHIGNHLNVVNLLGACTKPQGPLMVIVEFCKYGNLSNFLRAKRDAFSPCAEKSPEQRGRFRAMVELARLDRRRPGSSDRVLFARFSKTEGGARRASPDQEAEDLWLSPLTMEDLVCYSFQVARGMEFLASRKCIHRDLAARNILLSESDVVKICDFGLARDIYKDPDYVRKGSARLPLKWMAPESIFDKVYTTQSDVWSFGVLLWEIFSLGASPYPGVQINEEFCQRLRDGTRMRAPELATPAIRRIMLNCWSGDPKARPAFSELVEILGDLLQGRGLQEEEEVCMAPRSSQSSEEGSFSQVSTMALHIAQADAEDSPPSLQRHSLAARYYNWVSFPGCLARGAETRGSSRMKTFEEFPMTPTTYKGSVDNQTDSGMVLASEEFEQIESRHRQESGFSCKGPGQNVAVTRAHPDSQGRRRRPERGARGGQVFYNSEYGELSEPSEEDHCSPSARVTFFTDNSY
Serine/threonine-protein kinase TAO1 (Homo sapiens), sequence (Q7L7X3 whole entry): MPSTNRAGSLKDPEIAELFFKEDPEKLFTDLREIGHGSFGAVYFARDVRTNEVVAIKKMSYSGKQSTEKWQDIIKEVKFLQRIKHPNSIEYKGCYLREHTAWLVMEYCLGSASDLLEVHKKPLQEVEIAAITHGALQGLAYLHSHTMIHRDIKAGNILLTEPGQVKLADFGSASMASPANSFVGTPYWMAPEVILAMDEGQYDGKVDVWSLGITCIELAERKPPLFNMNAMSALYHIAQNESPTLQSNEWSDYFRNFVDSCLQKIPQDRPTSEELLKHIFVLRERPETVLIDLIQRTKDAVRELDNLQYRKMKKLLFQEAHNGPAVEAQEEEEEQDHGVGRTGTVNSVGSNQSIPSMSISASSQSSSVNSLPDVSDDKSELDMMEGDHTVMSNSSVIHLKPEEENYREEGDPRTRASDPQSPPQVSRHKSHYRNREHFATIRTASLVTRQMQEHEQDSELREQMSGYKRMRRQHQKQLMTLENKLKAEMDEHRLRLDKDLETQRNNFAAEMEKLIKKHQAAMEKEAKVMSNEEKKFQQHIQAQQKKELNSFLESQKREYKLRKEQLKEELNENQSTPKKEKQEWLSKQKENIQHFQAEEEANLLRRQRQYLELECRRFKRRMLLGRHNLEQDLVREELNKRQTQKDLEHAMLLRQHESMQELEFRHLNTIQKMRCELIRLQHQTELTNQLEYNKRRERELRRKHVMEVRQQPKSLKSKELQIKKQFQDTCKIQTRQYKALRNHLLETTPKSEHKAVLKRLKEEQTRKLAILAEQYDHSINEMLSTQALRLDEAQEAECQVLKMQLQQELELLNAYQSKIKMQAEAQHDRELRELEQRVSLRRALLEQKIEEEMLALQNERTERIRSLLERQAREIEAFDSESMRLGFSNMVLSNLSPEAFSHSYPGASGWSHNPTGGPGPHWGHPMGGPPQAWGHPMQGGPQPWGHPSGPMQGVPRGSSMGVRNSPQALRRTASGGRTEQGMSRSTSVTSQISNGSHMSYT
Casein kinase I isoform delta (Homo sapiens), sequence (P48730 whole entry, looked up, canonical isoform): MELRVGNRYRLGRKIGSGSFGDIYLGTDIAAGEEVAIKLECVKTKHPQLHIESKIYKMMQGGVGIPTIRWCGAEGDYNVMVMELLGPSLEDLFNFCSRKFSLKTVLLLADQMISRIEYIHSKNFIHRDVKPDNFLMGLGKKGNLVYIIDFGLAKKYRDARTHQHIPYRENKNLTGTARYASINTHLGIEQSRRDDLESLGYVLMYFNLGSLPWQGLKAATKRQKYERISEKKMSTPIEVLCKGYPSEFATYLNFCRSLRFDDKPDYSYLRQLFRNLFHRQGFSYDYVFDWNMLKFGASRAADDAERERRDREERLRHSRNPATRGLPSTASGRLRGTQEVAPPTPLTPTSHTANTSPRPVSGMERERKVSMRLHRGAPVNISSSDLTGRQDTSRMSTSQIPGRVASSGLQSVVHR
Protein kinase C iota type (Homo sapiens), sequence (P41743 whole entry): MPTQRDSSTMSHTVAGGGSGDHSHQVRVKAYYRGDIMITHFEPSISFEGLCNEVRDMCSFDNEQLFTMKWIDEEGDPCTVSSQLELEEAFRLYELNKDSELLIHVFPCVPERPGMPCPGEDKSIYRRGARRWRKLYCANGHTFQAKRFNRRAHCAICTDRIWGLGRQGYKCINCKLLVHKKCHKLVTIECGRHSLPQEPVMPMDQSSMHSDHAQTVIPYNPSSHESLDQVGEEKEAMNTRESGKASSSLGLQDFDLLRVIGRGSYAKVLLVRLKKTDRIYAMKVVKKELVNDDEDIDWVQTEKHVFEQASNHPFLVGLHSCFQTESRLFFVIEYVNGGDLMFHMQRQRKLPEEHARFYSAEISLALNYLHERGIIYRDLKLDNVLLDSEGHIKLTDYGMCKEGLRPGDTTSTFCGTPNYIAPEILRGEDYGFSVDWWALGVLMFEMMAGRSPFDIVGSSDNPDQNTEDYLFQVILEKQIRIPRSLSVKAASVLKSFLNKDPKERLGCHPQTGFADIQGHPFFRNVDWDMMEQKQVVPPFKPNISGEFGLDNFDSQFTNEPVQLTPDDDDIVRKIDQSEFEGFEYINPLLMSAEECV
NUAK family SNF1-like kinase 2 (Homo sapiens), sequence (Q9H093 whole entry): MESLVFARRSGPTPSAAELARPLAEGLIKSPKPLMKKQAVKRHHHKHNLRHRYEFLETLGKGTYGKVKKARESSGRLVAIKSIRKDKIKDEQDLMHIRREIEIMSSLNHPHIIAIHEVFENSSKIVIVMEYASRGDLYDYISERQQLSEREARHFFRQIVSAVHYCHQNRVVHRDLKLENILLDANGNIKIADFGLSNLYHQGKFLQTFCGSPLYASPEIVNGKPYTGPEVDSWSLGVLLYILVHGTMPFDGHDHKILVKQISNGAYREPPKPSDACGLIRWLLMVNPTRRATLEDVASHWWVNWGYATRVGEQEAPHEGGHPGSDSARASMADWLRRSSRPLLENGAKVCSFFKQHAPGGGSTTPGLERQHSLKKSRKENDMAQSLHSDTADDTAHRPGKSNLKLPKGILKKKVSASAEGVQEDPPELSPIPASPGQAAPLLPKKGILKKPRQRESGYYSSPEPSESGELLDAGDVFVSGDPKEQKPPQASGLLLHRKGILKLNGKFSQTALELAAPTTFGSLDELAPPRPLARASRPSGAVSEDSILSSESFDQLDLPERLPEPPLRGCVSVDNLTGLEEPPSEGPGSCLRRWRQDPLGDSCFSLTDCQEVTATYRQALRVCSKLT

| Compound | inhibition [1] | inhibition [2] | inhibition [3] | inhibition [4] | inhibition [5] | inhibition [6] | inhibition [7] | inhibition [8] | inhibition [9] | inhibition [10] | inhibition [11] | inhibition [12] | inhibition [13] | inhibition [14] | inhibition [15] | inhibition [16] | inhibition [17] | inhibition [18] | inhibition [19] | inhibition [20] | further results |
| --- | --- | --- | --- | --- | --- | --- | --- | --- | --- | --- | --- | --- | --- | --- | --- | --- | --- | --- | --- | --- | --- |
| O=c1n(Cc2cncn2-c2cccc(Cl)c2)nc(-c2ccc(Cl)cc2)n1C[C@H](O)C(F)(F)F | 8.43% | -6.67% | -2.39% | 12.7% | -4.98% | 1.19% | -1.75% | -5.22% | -1.37% | -4.73% | 11.3% | -9.92% | 3.99% | 2.63% | 14.9% | -1.01% | -4.61% | 0.21% | 0.93% | 4.78% | inhibition [21]: 6.35%; inhibition [22]: -1.55%; inhibition [23]: 0.29%; inhibition [24]: 7.19%; inhibition [25]: -6.55%; inhibition [26]: 2.45%; inhibition [27]: 1.49%; inhibition [28]: 6.58%; inhibition [29]: -6%; inhibition [30]: 1%; inhibition [31]: 2%; inhibition [32]: 1%; inhibition [33]: 3.66% |
| C[C@H](O)c1nc(Cn2nc(-c3ccc(Cl)cc3)n(C[C@H](O)C(F)(F)F)c2=O)nn1-c1cccc(Cl)c1 [PECAVAPTAN] | -1.31% | -4.1% | -3.57% | 11.2% | -5.17% | -5.02% | 2.34% | -3.11% | -9.63% | -5.82% | 4.21% | 0.47% | 5.13% | 0.06% | 11.3% | 4.99% | 2.12% | -3.93% | -4.51% | 7.11% | inhibition [21]: 9.04%; inhibition [22]: -6.39%; inhibition [23]: 2.68%; inhibition [24]: -2.96%; inhibition [25]: -5.51%; inhibition [26]: 10.5%; inhibition [27]: -5.08%; inhibition [28]: 6.41%; inhibition [29]: 1%; inhibition [30]: 6%; inhibition [31]: 8%; inhibition [32]: -1%; inhibition [33]: 1.85% |
